Reference: patent US11214540B2, “Compositions for treating neurodegenerative diseases” (COGNITION THERAPEUTICS, INC., priority 2017, dated 2022)
Where two headings read alike, the source gives them in different places.

How the values were obtained:
[1] = log P; type: physicochemical
Procedure, shortened: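 Ratio of un-ionized compound concentrations between octanol and water, with aqueous pH set so the un-ionized form predominates. Value given as the log of the octanol/water ratio.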

[2] = target: potassium channel hERG (Homo sapiens (Human), UniProt Q12809); experiment: In vitro testing for hERG inhibition; type: biochemical; settings: in vitro toxicity potassium channel hERG
Experimental: In vitro testing for hERG inhibition was performed in a standard assay (See: Haverkamp W, Breithardt G, Carnm A J, Janse M J, Rosen M R, Antzelevitch C, Escande D, Franz M, Malik M, Moss A and Shah R. (2000) Eur Heat J 21 (15); 1216-31).

[3] = Mouse liver microsome (MLM) stability; type: in vitro ADME; settings: microsomal stability in mouse liver microsomes (MLM)
Experimental: A first pharmacokinetic study was performed in microsomes of mice mouse liver microsomes, MLM).
Microsomal stability experiments and plasma stability experiments were performed to determine metabolic and hepatic stability of candidate compounds.

[4] = target: Sigma-1 receptors on Jurkat cell membranes (Homo sapiens (Human), UniProt Q99720); experiment: Competitive Radioligand Binding Assay 1, Sigma-1 binding ([3H](+)pentazocine displacement); settings: sigma-1 receptor affinity; read-out: S1 Ki
Experimental: Certain compounds were tested for interaction with several receptors by blocking the binding or action of their agonists or antagonists. Some compounds were tested to see whether they interact directly with known cellular receptor or signaling proteins. Compounds can be tested for the ability to displace binding of known agonists or antagonists of a given human receptor that was overexpressed in cell lines or isolated from tissue. Compounds can also be tested for the ability to block downstream signaling induced by agonists or antagonists of a given human receptor. Compounds can be tested for action at 100 known receptors, and it is desirable that specific activity will occur at only a small subset of CNS-relevant receptors.
For Sigma-1 binding, various concentrations of test compounds from 100 μM to 1 nM were used to displace 8 nM [3H](+)pentazocine from endogenous receptors on Jurkat cell membranes (Ganapathy M E et al. 1991, J Pharmacol. Exp. Ther. 289:251-260). 10 μM Haloperidol was used to define non-specific binding. […] (Bowen W D, et al. 1993, Mol. Neuropharmcol 3:117-126). 10 μM Haloperidol was used to define non-specific binding. Reactions were terminated by rapid filtration through Whatman GF/C filters using a Brandel 12R cell harvester followed by two washes with ice-cold buffer. Radioactivity on the dried filter discs was measured using a liquid scintillation analyzer (Tri-Carb 2900TR; PerkinElmer Life and Analytical Sciences). The displacement curves were plotted and the Ki values of the test compounds for the receptor subtypes were determined using GraphPad Prism (GraphPad Software Inc., San Diego, Calif.). The percentage specific binding was determined by dividing the difference between total bound (disintegrations per minute) and nonspecific bound (disintegrations per minute) by the total bound (disintegrations per minute). […]

[5] = target: Sigma-2 receptors on membranes from rat cerebral cortex (Rattus norvegicus (Rat), UniProt Q5U3Y7); experiment: Competitive Radioligand Binding Assay 1, Sigma-2 binding ([3H]DTG displacement with (+)pentazocine mask); settings: sigma-2 receptor affinity; read-out: S2 Ki
Procedure, shortened: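 Displacement of [3H]DTG by test compounds from rat cerebral cortex membranes in presence of 300 nM (+)pentazocine masking sigma-1 sites; 10 μM haloperidol defines non-specific binding. Filtration and scintillation counting; Ki from displacement curves.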

[6] = tested on: Abeta oligomer-induced membrane trafficking deficits in primary hippocampal neurons; experiment: Membrane Trafficking/Exocytosis (MTT) assay, Abeta oligomer effect on neurons; type: cell-based, rat; settings: membrane trafficking, read-out: EC50 Abeta;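 note: compound potency for inhibiting the Abeta oligomer effect on exocytosis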
Procedure, shortened: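 Rat E18 hippocampal neurons cultured 3 weeks received compound (100 uM to 0.001 nM), then vehicle or Abeta 1-42 oligomers (3 μM total Abeta), for 1-24 h at 37 °C. MTT was added for 1 h, and formazan vesicle exocytosis was quantified by automated imaging with DAPI toxicity check. Tukey-Kramer comparisons were made with N=4.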

Chain of Sigma-2 receptors on membranes from rat cerebral cortex (Q5U3Y7 whole entry): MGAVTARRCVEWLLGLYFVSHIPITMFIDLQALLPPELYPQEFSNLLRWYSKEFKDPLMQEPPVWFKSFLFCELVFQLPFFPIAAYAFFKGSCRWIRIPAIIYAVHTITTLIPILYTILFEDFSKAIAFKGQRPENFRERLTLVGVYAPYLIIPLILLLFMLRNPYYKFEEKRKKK
Chain of Sigma-1 receptors on Jurkat cell membranes (Q99720 whole entry): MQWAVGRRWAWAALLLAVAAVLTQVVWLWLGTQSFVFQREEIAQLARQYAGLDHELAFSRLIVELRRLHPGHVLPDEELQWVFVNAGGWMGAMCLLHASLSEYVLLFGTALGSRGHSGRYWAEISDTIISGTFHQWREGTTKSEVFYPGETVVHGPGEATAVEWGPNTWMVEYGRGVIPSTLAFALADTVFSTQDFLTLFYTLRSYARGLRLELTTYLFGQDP
Chain of potassium channel hERG (Q12809 whole entry): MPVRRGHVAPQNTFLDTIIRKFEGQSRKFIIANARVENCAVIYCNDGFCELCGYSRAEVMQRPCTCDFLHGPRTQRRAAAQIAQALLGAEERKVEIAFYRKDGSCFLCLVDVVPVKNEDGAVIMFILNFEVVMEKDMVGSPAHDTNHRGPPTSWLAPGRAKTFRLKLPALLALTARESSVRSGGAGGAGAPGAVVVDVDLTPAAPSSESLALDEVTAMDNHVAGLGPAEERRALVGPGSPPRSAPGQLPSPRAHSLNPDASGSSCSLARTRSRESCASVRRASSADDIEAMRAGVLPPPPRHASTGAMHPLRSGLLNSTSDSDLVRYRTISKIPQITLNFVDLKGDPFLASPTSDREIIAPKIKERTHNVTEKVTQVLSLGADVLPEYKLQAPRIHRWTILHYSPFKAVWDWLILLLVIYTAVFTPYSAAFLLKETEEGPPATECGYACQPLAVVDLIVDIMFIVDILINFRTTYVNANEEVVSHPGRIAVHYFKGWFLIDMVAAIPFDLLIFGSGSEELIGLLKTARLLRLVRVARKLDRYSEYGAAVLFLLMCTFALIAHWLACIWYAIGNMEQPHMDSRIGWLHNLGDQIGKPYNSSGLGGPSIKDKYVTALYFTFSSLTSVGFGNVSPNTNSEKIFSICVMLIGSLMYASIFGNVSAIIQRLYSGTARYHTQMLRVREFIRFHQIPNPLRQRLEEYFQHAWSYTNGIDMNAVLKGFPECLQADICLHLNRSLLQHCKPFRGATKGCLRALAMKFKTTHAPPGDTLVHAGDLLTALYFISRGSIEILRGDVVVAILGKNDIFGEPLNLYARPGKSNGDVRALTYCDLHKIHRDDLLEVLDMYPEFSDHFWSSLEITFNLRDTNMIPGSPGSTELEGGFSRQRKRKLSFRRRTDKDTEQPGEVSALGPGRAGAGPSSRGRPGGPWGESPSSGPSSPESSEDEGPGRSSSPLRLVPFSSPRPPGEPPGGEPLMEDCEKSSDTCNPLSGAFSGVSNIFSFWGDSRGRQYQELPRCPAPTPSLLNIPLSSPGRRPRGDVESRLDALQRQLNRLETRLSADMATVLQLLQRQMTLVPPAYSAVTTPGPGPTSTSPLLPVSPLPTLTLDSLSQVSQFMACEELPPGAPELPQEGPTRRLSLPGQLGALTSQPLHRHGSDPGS

| Compound | log P [1] | MLM T1/2 [3] | Ki [4] | Ki [5] | logP ([1]; octanol/water) | half-life ([3]; read-out: MLM T1/2) | IC50 [2] | EC50 [6] | EC50 ([6]; Rattus norvegicus, Hippocampal neuron) |
| --- | --- | --- | --- | --- | --- | --- | --- | --- | --- |
| CC(C)=CC(CC(C)(C)c1ccc(C(F)(F)F)cc1)N1CCOCC1 (stereo not drawn) [Compound 72] | 5.32 | 0.035 h | 770 nM | 400 nM |  |  | 80000 nM | 20000 nM |  |
| CC(C)=CC(CC(C)(C)c1ccc(Cl)cc1)N1CCC(O)CC1 (stereo not drawn) [Compound 77] | 4.58 | 0.733 h | 540 nM | 800 nM |  |  | 15200 nM | 20000 nM |  |
| CC(C)=CC(CC(C)(C)c1ccc(F)cc1)N1CCC(O)CC1 (stereo not drawn) [Compound 79] | 4.12 | 1.23 h | 1200 nM | 940 nM |  |  | 29000 nM | 1900 nM |  |

Stronger by Ki [4], values ahead:

| log P [1] | MLM T1/2 [3] | Ki [4] | Ki [5] | logP ([1]; octanol/water) | half-life ([3]; read-out: MLM T1/2) | Compound | IC50 [2] | EC50 [6] | EC50 ([6]; Rattus norvegicus, Hippocampal neuron) |
| --- | --- | --- | --- | --- | --- | --- | --- | --- | --- |
| 5.65 | 0.183 h | 500 nM | 300 nM |  |  | CC(C)=CC(CC(C)(C)c1ccc(F)cc1)N1CCCCC1 (stereo not drawn) [Compound 68] | 27000 nM | 20000 nM |  |
| 6.95 | 0.233 h | 33 nM | 340 nM |  |  | CC(C)=CC(CC(C)(C)c1ccc(C(F)(F)F)cc1)N1CCC(C(F)(F)F)CC1 (stereo not drawn) [Compound 70] | 16300 nM | 20000 nM |  |
| 4.86 | 1.45 h | 29 nM | 410 nM |  |  | CC(C)=CC(CC(C)(C)c1ccc(Cl)cc1)N1CCC(C)(O)CC1 (stereo not drawn) [Compound 73] | 24000 nM | 700 nM |  |
| 4.11 | 1 h | 380 nM | 2800 nM |  |  | CC(C)=CC(CC(C)(C)c1ccc(S(C)(=O)=O)cc1)N1CCC2(CCOCC2)CC1 (stereo not drawn) [Compound 82] | 100000 nM | 20000 nM |  |
|  |  | 13 nM | 1.8 nM | 6.58 | 1.9 h | CC(C)=CC(CC(C)(C)c1ccc(C(F)(F)F)cc1)N1CCC(C2CCOCC2)CC1 (stereo not drawn) [Example 9] | 1000 nM |  | 500 nM |
